# Measured values from US20110117009A1, “DRUG CONJUGATES WITH POLYGLYCEROLS” (FREIE UNIVERSITÄT BERLIN, priority 2008, published 2011).
# Marks after values point to notes of the source that are not given here.
# Columns and labels:
# [1] = nude mice models, e.g. 2×12 mg/kg; cited from earlier work
# [2] = tested on: AsPC1 LN; assay: Cytotoxicity, luciferase readout after 72 h; assay type: cell-based; settings: Homo sapiens
# Description: After 72 h cells were lysed in 100 μL of luciferase assay buffer, and an aliquot of the lysate was assayed for luciferase activity.
# [3] = tested on: human ovarian cancer xenografts (A2780); assay: In vivo efficacy in the ovarian carcinoma A2780 xenograft model; parameters: species or system female NMRI: nu/nu mice; settings: doxorubicin 2×8 mg/kg, conjugates 3×24 mg/kg doxorubicin equivalents
# Description: The mice were held in individually ventilaged cages (IVC) under sterile and standardized environmental conditions (25±2° C. room temperature, 50±10% relative humidity, 12 hour light-dark-rhythm). They received autoclaved food and bedding (ssniff, Soest, Germany) and acidified (pH 4.0) drinking water ad libitum. […] Mice were randomly distributed to the experimental groups (8 mice per group). When the tumors were grown to a palpable size, treatment was initiated.
# (§1) Tumor size was measured twice weekly with a caliper-like instrument in two dimensions. Individual tumor volumes (V) were calculated by the formula V=(length×[width]^2)/2 and related to the values on the first day of treatment (relative tumor volume, RTV). Statistical analysis was performed with the U-test (Mann and Whitney) with p<0.05. The body weight of mice was determined every 3 to 4 days.
# [4] = Tolerability (mortality, body weight change) in the A2780 xenograft study; assay type: in vivo, female NMRI: nu/nu mice; settings: i.v. weekly, doxorubicin 2×8 mg/kg, conjugates 3×24 mg/kg doxorubicin equivalents
# Description: In vivo efficacy studies were carried out with compounds 1-A, 1-B, and 1-C and doxorubicin in the ovarian carcinoma A2780 xenograft model. For the in vivo testing, female NMRI: nu/nu mice (Taconic, Denmark) were used. The mice were held in individually ventilaged cages (IVC) under sterile and standardized environmental conditions (25±2° C. room temperature, 50±10% relative humidity, 12 hour light-dark-rhythm). They received autoclaved food and bedding (ssniff, Soest, Germany) and acidified (pH 4.0) drinking water ad libitum. A2780 tumor fragments were transplanted subcutaneously (s.c.) into the left flank region of anaesthetized (40 mg/kg i.p. Radenarkon, Asta Medica, Frankfurt, Germany) mice on day zero. […]
# as §1, with “Statistical analysis was performed with the U-test (Mann and Whitney) with p<0.05.” left out
# The standard and maximum tolerated dose of doxorubicin (2×8 mg/kg) was compared to compounds 1-A, 1-B, and 1-C at 3×24 mg/kg (doxorubicin equivalents). […] J. Drug Targeting, 8: 305-318, 2000; Trail et al.: Antigen-specific activity of carcinoma-reactive BR64-doxorubicin conjugates evaluated in vitro and in human tumor xenograft models. […]
structure (smiles),measurement,setting,value
"COc1cccc2c1C(=O)c1c(O)c3c(c(O)c1C2=O)C[C@@](O)(C(=O)CO)C[C@@H]3O[C@H]1C[C@H](N)[C@H](O)[C@H](C)O1 [Doxorubicin, doxorubicin]",toxicity at higher doses,[1],unacceptable toxicity and mortality
same,IC50,[2],360 nM
same,antitumor efficacy (in words),[3]; A2780 xenografts,moderate antitumor efficacy
same,optimum T/C RTV,"[3]; i.v. weekly, relative tumor volume treated versus control",15* %
same,toxic death,[4]; 8 mice per group,0
same,BWC (body weight change),[4]; day in brackets,−21 (d26) %
